From PubChem BioAssay AID2060897 (Molecular Pharmacology Branch, DTP, NCI, 2025)
“And” between values parts separate entries of the source, which are not always exact repeats. Equal entries are not always repeated.

System: 966289-007-R4-J1-PDC complex spheroid viability
Experiment: Anticancer human tumor 966289-007-R4-J1-PDC patient-derived pancreatic adenocarcinoma cell line growth inhibition [RAS]
Settings: for viability, T/C: stronger effect = lower value
Procedure, shortened: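 Agents were tested in combination matrices in half-log decrements from a top concentration at or near clinical Cmax (10 microM if undetermined). Targets were multi-cell spheroids of tumour lines plus HUVEC and MSC stromal cells.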
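Note: spheroids exposed to agents for one week before readout.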
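Throughout, for viability, T/C: percent viability relative to DMSO vehicle control wells as 100%.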

Compound: Cc1nc(N2CCC3(CC2)COC(C)C3N)c(CO)nc1Sc1ccnc(N)c1Cl (stereo unspecified)
- viability, T/C (compound 0.316 µM): 108% [middle of 4 runs]
- viability, T/C (compound 1 µM): 102% (2×) and 73.6% and 119%
- viability, T/C (compound 10 µM): 95.5% [middle of 4 runs]
- IC50 (curve of compound): > 10 µM

Compound: CC(C)NCC(C(=O)N1CCN(c2ncnc3c2C(C)CC3O)CC1)c1ccc(Cl)cc1 (stereo unspecified) + CCn1c(-c2cc(N3CCN(C)CC3)cnc2C(C)OC)c2c3cc(ccc31)-c1csc(n1)CC(NC(=O)C1CC1C)C(=O)N1CCCC(N1)C(=O)OCC(C)(C)C2
- IC50 (curve of first compound, second compound 0.000949 µM): 5.85 µM
- IC50 (curve of first compound, second compound 0.003 µM): 4.53 µM
- IC50 (curve of first compound, second compound 0.00949 µM): 5.06 µM
- IC50 (curve of first compound, second compound 0.03 µM): 4.79 µM
- IC50 (curve of first compound, second compound 0.0949 µM): 2.99 µM
- IC50 (curve of first compound, second compound 0.3 µM): 4.07 µM
- viability, T/C (second compound 0.000949 µM, first compound 0.0316 µM): 115%
- viability, T/C (second compound 0.000949 µM, first compound 0.1 µM): 76.5%
- viability, T/C (second compound 0.000949 µM, first compound 0.316 µM): 119%
- viability, T/C (second compound 0.000949 µM, first compound 1 µM): 83.1%
- viability, T/C (second compound 0.000949 µM, first compound 3.16 µM): 68.4%
- viability, T/C (second compound 0.000949 µM, first compound 10 µM): 35.2%
- viability, T/C (second compound 0.003 µM, first compound 0.0316 µM): 106%
- viability, T/C (second compound 0.003 µM, first compound 0.1 µM): 92.5%
- viability, T/C (second compound 0.003 µM, first compound 0.316 µM): 91.8%
- viability, T/C (second compound 0.003 µM, first compound 1 µM): 95.3%
- viability, T/C (second compound 0.003 µM, first compound 3.16 µM): 58.1%
- viability, T/C (second compound 0.003 µM, first compound 10 µM): 32.2%
- viability, T/C (second compound 0.00949 µM, first compound 0.0316 µM): 85.5%
- viability, T/C (second compound 0.00949 µM, first compound 0.1 µM): 98.6%
- viability, T/C (second compound 0.00949 µM, first compound 0.316 µM): 103%
- viability, T/C (second compound 0.00949 µM, first compound 1 µM): 97.2%
- viability, T/C (second compound 0.00949 µM, first compound 3.16 µM): 61.3%
- viability, T/C (second compound 0.00949 µM, first compound 10 µM): 33.6%
- viability, T/C (second compound 0.03 µM, first compound 0.0316 µM): 75.1%
- viability, T/C (second compound 0.03 µM, first compound 0.1 µM): 97.4%
- viability, T/C (second compound 0.03 µM, first compound 0.316 µM): 99.2%
- viability, T/C (second compound 0.03 µM, first compound 1 µM): 97.6%
- viability, T/C (second compound 0.03 µM, first compound 3.16 µM): 61.6%
- viability, T/C (second compound 0.03 µM, first compound 10 µM): 29.4%
- viability, T/C (second compound 0.0949 µM, first compound 0.0316 µM): 77.1%
- viability, T/C (second compound 0.0949 µM, first compound 0.1 µM): 90.7%
- viability, T/C (second compound 0.0949 µM, first compound 0.316 µM): 113%
- viability, T/C (second compound 0.0949 µM, first compound 1 µM): 92.7%
- viability, T/C (second compound 0.0949 µM, first compound 3.16 µM): 47.9%
- viability, T/C (second compound 0.0949 µM, first compound 10 µM): 27.3%
- viability, T/C (second compound 0.3 µM, first compound 0.0316 µM): 83.7%
- viability, T/C (second compound 0.3 µM, first compound 0.1 µM): 102%
- viability, T/C (second compound 0.3 µM, first compound 0.316 µM): 112%
- viability, T/C (second compound 0.3 µM, first compound 1 µM): 98.3%
- viability, T/C (second compound 0.3 µM, first compound 3.16 µM): 57.4%
- viability, T/C (second compound 0.3 µM, first compound 10 µM): 23.8%
